Our source for the Efficacy of omphalotin values is US6384186B2 (priority 1995, dated 2002).

The structures appear in SMILES notation. Square brackets hold non-standard residues; d marks the D form. Peptide text beside a SMILES is read from it. NMeI = CC[CH](C)[CH](NC)C(=O)O; NMeV = CN[CH](C(=O)O)C(C)C; Sar = CNCC(=O)O

On to `CCC(C)C1NC(=O)C(C(C)C)N(C)C(=O)C(Cc2c[nH]c3ccccc23)NC(=O)CN(C)C(=O)C(C(C)CC)N(C)C(=O)C(C(C)C)NC(=O)CN(C)C(=O)C(C(C)CC)N(C)C(=O)C(C(C)C)N(C)C(=O)CN(C)C(=O)C(C(C)C)N(C)C(=O)C(C(C)C)N(C)C1=O` (centres unmarked) [omphalotin] (cyclo([Sar][NMeV][NMeI][Sar]V[NMeI][Sar]W[NMeV]I[NMeV][NMeV]); configuration not given here), for which the values for the Efficacy of omphalotin in the assay on Pyricularia oryzae and in the assay on Fusarium graminearum were 70% and 23%, respectively.
